# Data taken from article PMC9940851, “Seleno Containing Compounds as Potent and Selective Antifungal Agents” (ACS Infectious Diseases, 2022).
# What was measured:
# MgCA = molecular target: T1, MgCA (Malassezia globosa, UniProt A8Q1N3); assay: stopped-flow CO2 hydrase assay; format: biochemical
# T1 construct: gene MGL_1814
# T1 sequence (A8Q1N3 1-241): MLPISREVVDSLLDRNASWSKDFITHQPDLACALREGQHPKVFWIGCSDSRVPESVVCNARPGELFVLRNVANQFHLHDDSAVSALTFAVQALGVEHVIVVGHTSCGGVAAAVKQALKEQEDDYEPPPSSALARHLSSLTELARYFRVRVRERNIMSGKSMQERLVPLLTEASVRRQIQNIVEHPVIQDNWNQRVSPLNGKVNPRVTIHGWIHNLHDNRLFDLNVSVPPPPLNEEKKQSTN
# Procedure, shortened: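 Stopped-flow recording over 10–100 s followed CO2 hydration (1.7–17 mM CO2) in 20 mM Hepes pH 7.4 plus 20 mM Na2SO4, using 0.2 mM phenol red at 557 nm, after recombinant carbonic anhydrase (5–12 nM) had been preincubated with inhibitor for 15 min at room temperature. Initial rates, corrected for uncatalysed rates, came from at least six traces, and at least three determinations were averaged. Ki was calculated by nonlinear least-squares fitting with the Cheng-Prusoff equation.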
# MpaCA = molecular target: T2, MpaCA (Malassezia pachydermatis, UniProt A0A0M8MPA4); assay: stopped-flow CO2 hydrase assay; format: biochemical
# T2 construct: gene Malapachy_3798
# T2 sequence (A0A0M8MPA4 1-242): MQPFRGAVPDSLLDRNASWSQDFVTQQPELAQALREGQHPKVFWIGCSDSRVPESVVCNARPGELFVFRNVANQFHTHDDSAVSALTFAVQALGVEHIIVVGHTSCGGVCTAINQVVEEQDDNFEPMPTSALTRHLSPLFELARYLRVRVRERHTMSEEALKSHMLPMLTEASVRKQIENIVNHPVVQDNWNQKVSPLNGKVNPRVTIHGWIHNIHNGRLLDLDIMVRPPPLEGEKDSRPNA
# M. globosa ATCC MYA 4612 = system: T3, M. globosa ATCC MYA 4612; assay: microbe, parasite or virus in culture; conditions: Malassezia globosa
# T3 construct: ATCC MYA 4612
# Method: (§1) Inoculum preparations for antifungal assays were performed following the CLSI guidelines for antifungal susceptibility testing of yeasts.[31] Antifungal activity was evaluated on unicellular yeasts Candida albicans ATCC 10231, Candida glabrata ATCC 90030 (DSMZ 11226), Malassezia pachydermatis CDC 16334 (DSMZ 6172), Malassezia globosa ATCC MYA 4612, and Malassezia furfur ATCC 14521. All the fungal strains were stored at −80 °C in cryovials. Then Candida spp. and Malassezia pachydermatis were reactivated in RPMI 1640 broth for 24–48 h at 35 °C. The so obtained fresh cultures were streaked onto Sabouraud dextrose agar and incubated for 24–48 h at 35 °C. Malassezia globosa and furfur were reactivated in modified RPMI 1640 broth[32] for 24–48 h at 35 °C (M. furfur) and 33 °C (M. globosa), and then the cultures were streaked onto Leeming and Notman agar (MLNA) and incubated for 48–72 h at 35 °C for M. furfur and at 33 °C for M. globosa. The fungal inoculum for the testing was prepared by suspending in phosphate buffer (PB) 10 mM pH 7 4–5 colonies of about 1 mm diameter. The fungal suspension was then adjusted to a final optical density of 0.5 McFarland standard (1–5 × 10^6 cells/mL). The compound solutions were tested in a range of concentrations from 0.01 μg/mL to 256 μg/mL, and 50 μL were then added in 96 wells microtiter plates with 50 μL of fungal inoculum and incubated for 24–48 h at 35 °C. Growth and sterility controls were performed. […] Compounds 3a, 3c, 5b, 7a–d, 9c, 11e, 11i, and 14a,b were selected as representatives of the chemical moieties synthesized prior to their screen on yeasts of biomedical relevance such as M. pachydermatis DSMZ 6172, C. albicans ATCC 10231, and C. glabrata ATCC 90030 (DSMZ 11226) strains. The clinical used drugs Ketoconazole, SeS2, and Amphotericin B were included as references (Table 1).
# ATCC M. furfur 14521 = system: T4, ATCC M. furfur 14521; assay: microbe, parasite or virus in culture; conditions: Malassezia furfur
# T4 construct: ATCC 14521
# Method: as §1
# C. glabrata DSMZ 11226 = system: T5, C. glabrata DSMZ 11226; assay: microbe, parasite or virus in culture; design: broth microdilution MIC, M. pachydermatis and Candida, 35 °C; conditions: Nakaseomyces glabratus, DSMZ11226
# T5 construct: DSMZ 11226 (ATCC 90030)
# Method: as §1
# [1] = system: T6, M. pachydermatis DSMZ 6172; assay: microbe, parasite or virus in culture; design: broth microdilution MIC, M. pachydermatis and Candida, 35 °C; conditions: Malassezia pachydermatis, DSMZ6172
# T6 construct: DSMZ 6172 (CDC 16334)
# Method: as §1
# C. albicans = assay: microbe, parasite or virus in culture; design: broth microdilution MIC, M. pachydermatis and Candida, 35 °C; conditions: Candida albicans
# Method: as §1
Structure (SMILES),Ki (MgCA),Ki (MpaCA),MIC (M. globosa ATCC MYA 4612),MIC (ATCC M. furfur 14521),MIC (C. glabrata DSMZ 11226),MIC [1],MIC (C. albicans)
CC(=O)Oc1ccccc1C(=O)NC(=[Se])Nc1ccc(S(N)(=O)=O)cc1 [7d],5.88 µM,66.8 µM,256 µg/mL,2.7 ± 1.15 µg/mL,64 µg/mL,3.33 ± 1.15 µg/mL,128 µg/mL
NS(=O)(=O)c1ccc(CCNC(=[Se])Nc2ccccc2F)cc1 [5b],0.633 µM,0.149 µM,9 ± 5.9 µg/mL,1 µg/mL,3.3 µg/mL,0.25 µg/mL,107 µg/mL
CC(=O)N1CCN(c2ccc(OC[C@@H]3CO[C@@](Cn4ccnc4)(c4ccc(Cl)cc4Cl)O3)cc2)CC1 (racemic) [Ketoconazole],,,0.25 µg/mL,0.25 µg/mL,96 ± 37 µg/mL,0.03 µg/mL,0.05 ± 0.02 µg/mL
NS(=O)(=O)c1ccc(CCNC(=[Se])NC(=O)c2ccc3c(c2)OCO3)cc1 [9c],1.78 µM,55.9 µM,37.3 ± 13.1 µg/mL,2 ± 1.37 µg/mL,> 256 µg/mL,1 µg/mL,> 256 µg/mL
NS(=O)(=O)c1ccc(NC(=[Se])NC(=O)c2ccc3c(c2)OCO3)cc1 [7b],4.86 µM,20.4 µM,16 ± 8.76 µg/mL,0.5 µg/mL,16 µg/mL,0.5 µg/mL,128 µg/mL
CC(=O)Oc1ccccc1C(=O)NC(=[Se])Nc1cc(S(N)(=O)=O)ccc1O [11e],4.73 µM,33.8 µM,6.7 ± 2.1 µg/mL,0.75 ± 0.67 µg/mL,256 µg/mL,0.5 µg/mL,256 µg/mL
NS(=O)(=O)c1ccc(NC(=[Se])NC(=O)c2ccccc2)cc1 [7a],3.85 µM,44.8 µM,14.7 ± 3.26 µg/mL,0.85 ± 0.36 µg/mL,32 µg/mL,0.5 µg/mL,128 µg/mL
NS(=O)(=O)c1ccc(NC(=[Se])Nc2ccccc2F)cc1 [3c],0.721 µM,0.152 µM,> 256 µg/mL,16 µg/mL,64 µg/mL,64 µg/mL,341 µg/mL
"O=C(NC(=[Se])Nc1ccc(S(=O)(=O)Nc2nccs2)cc1)c1ccc(F)cc1 [10e, 4-Fluoro-N-((4-(N-(thiazol-2-yl)sulfamoyl)phenyl)carbamoselenoyl)benzamide]",8.9 µM,80.3 µM,128 µg/mL,2.3 ± 2.31 µg/mL,,1 µg/mL,
"CCCCCCCc1ccc(C(=O)NC(=[Se])Nc2ccc(S(=O)(=O)Nc3nccs3)cc2)cc1 [10c, 4-Heptyl-N-((4-(N-(thiazol-2-yl)sulfamoyl)phenyl)carbamoselenoyl)benzamide]",60.6 µM,91.9 µM,> 256 µg/mL,4 µg/mL,,0.8 ± 0.29 µg/mL,
"NS(=O)(=O)c1cccc(NC(=[Se])NC(=O)c2cc(Br)cc(OC(F)(F)F)c2)c1 [8c, 3-Bromo-N-((3-sulfamoylphenyl)carbamoselenoyl)-5-(trifluoromethoxy)benzamide]",7.65 µM,86.1 µM,256 µg/mL,9.3 ± 6.11 µg/mL,,2 µg/mL,
"NS(=O)(=O)c1ccc(CCNC(=[Se])NC(=O)c2ccc(F)cc2)cc1 [9d, 4-Fluoro-N-((4-sulfamoylphenethyl)carbamoselenoyl)benzamide]",8 µM,75 µM,128 µg/mL,2.3 ± 2.31 µg/mL,,1 µg/mL,
NS(=O)(=O)c1ccc(CCNC(=[Se])Nc2ccccc2Cl)cc1 [5e],0.812 µM,0.518 µM,256 µg/mL,2.3 ± 1.53 µg/mL,,0.5 µg/mL,
"NS(=O)(=O)c1ccc(CCNC(=[Se])NC(=O)c2ccc(/N=N/c3ccccc3)cc2)cc1 [9f, (E)-4-(Phenyldiazenyl)-N-((4-sulfamoylphenethyl)carbamoselenoyl)benzamide]",2.39 µM,88.8 µM,8 µg/mL,2.7 ± 1.15 µg/mL,,3.33 ± 1.15 µg/mL,
C[C@@H]1[C@H](O)[C@@H](C)/C=C/C=C/C=C/C=C/C=C/C=C/C=C/[C@H](O[C@@H]2O[C@H](C)[C@@H](O)[C@H](N)[C@@H]2O)C[C@@H]2O[C@](O)(C[C@@H](O)C[C@@H](O)[C@H](O)CC[C@@H](O)C[C@@H](O)CC(=O)O[C@H]1C)C[C@H](O)[C@H]2C(=O)O [Amphotericin B],,,125 µg/mL,1.95 µg/mL,0.98 µg/mL,0.43 ± 0.12 µg/mL,0.24 ± 1 µg/mL
"O=C(NC(=[Se])Nc1ccc(S(=O)(=O)Nc2nccs2)cc1)c1ccc(I)cc1 [10f, 4-Iodo-N-((4-(N-(thiazol-2-yl)sulfamoyl)phenyl)carbamoselenoyl)benzamide]",10.2 µM,74.3 µM,> 256 µg/mL,5.3 ± 2.31 µg/mL,,2 µg/mL,
"NS(=O)(=O)c1ccc(NC(=[Se])NC(=O)c2ccc([N+](=O)[O-])cc2)cc1 [7f, 4-Nitro-N-((4-sulfamoylphenyl)carbamoselenoyl)benzamide]",9.01 µM,85.4 µM,64 µg/mL,42.7 ± 18.5 µg/mL,,2.2 ± 1.75 µg/mL,
"NS(=O)(=O)c1ccc(O)c(NC(=[Se])NC(=O)c2ccc([N+](=O)[O-])cc2)c1 [11c, N-((2-Hydroxy-5-sulfamoylphenyl)carbamoselenoyl)-4-nitrobenzamide]",5.02 µM,91.2 µM,128 µg/mL,5.3 ± 2.31 µg/mL,,0.5 µg/mL,
"CCCCCCCc1ccc(C(=O)NC(=[Se])Nc2cccc(S(N)(=O)=O)c2)cc1 [8b, 4-Heptyl-N-((3-sulfamoylphenyl)carbamoselenoyl)benzamide]",2.19 µM,49.3 µM,213 ± 73.9 µg/mL,6.7 ± 2.31 µg/mL,,0.8 ± 0.29 µg/mL,
CCCCCCCc1ccc(C(=O)NC(=[Se])Nc2ccc(S(N)(=O)=O)cc2)cc1 [7e],5.88 µM,78.2 µM,> 256 µg/mL,10.7 ± 4.62 µg/mL,,0.5 µg/mL,
"NS(=O)(=O)c1ccc(O)c(NC(=[Se])NC(=O)c2ccc(Br)cc2F)c1 [11g, 4-Bromo-2-fluoro-N-((2-hydroxy-5-sulfamoylphenyl)carbamoselenoyl)benzamide]",6.01 µM,70.9 µM,256 µg/mL,5.3 ± 2.31 µg/mL,,3.33 ± 1.15 µg/mL,
"NS(=O)(=O)c1cccc(NC(=[Se])NC(=O)c2ccc(Cl)cc2)c1 [8f, 4-Chloro-N-((3-sulfamoylphenyl)carbamoselenoyl)benzamide]",2.08 µM,74.7 µM,128 µg/mL,64 µg/mL,,16 µg/mL,
"O=C(NC(=[Se])Nc1ccc(S(=O)(=O)Nc2nccs2)cc1)c1ccc([N+](=O)[O-])cc1 [10d, 4-Nitro-N-((4-(N-(thiazol-2-yl)sulfamoyl)phenyl)carbamoselenoyl)benzamide]",8.77 µM,92.8 µM,26.7 ± 9.2 µg/mL,85.3 ± 37 µg/mL,,1.8 ± 1.89 µg/mL,
"O=C(NC(=[Se])Nc1ccc(S(=O)(=O)Nc2nccs2)cc1)c1ccccc1 [10a, N-((4-(N-(Thiazol-2-yl)sulfamoyl)phenyl)carbamoselenoyl)benzamide]",52.8 µM,42.9 µM,128 µg/mL,8 µg/mL,,1 µg/mL,
